From US6703373B1, “Indolopyrrolocarbazole derivatives and antitumor agents” (Banyu Pharmaceutical Co., Ltd., priority 2002, dated 2004) come the findings set out here.

Assay [1] has as its system human colon cancer cells (DLD-1). The assay can be described thus: Growth inhibition activity on human colon cancer cells (DLD-1). It counts as cell-based. The conditions noted are these: DLD-1 cells, 72 h with compound, Sulforhodamine B, absorbance 560 nm; read-out: 50% inhibition concentration (IC50, nM) DLD-1. On the procedure:
(§1) Growth Inhibition Activity on Human Gastric Cancer Cells, Human Colon Cancer Cells and Human Lung Cancer Cells
(§2) 100 μl of a medium containing a test compound was added, and culture was continued at 37° C. for further 72 hours under 5% CO2. After completion of the culture, 50 μl of 50% trichloroacetic acid was added to the cultured medium, and the mixtures were held at 4° C. for 60 minutes to fix the cells. The cultured medium containing trichloroacetic acid was removed, and the wells were washed with tap water and dried. 50 μl of 0.4% Sulforhodamine B solution was added, and the mixtures were held at room temperature for 30 minutes to dye the cells. The dyeing solutions were removed, and the remaining dyeing solutions were washed away with 1% acetic acid. After complete removal of the acetic acid solution and drying, 200 μl of […] Tris solution was added and the mixtures were mixed well at room temperature for 1 hour or more to extract the dye. Absorbance of each well at 560 nm was measured, and the inhibition proportion in comparison with the group of no addition of any drug was calculated.

Assay [2] deals with human gastric cancer cells (MKN-45). The assay can be described thus: Growth inhibition activity on human gastric cancer cells (MKN-45). Type of assay: cell-based. The conditions noted are these: MKN-45 cells, 72 h with compound, Sulforhodamine B, absorbance 560 nm; read-out: 50% inhibition concentration (IC50, nM) MKN-45. On the procedure:
as §1, §2

The test system of the next assay is Human breast cancer MX-1. The assay can be described thus: Antitumor effect on human breast cancer (MX-1) solid tumor implanted in mice. Type of assay: in vivo, mouse. The conditions noted are these: total dose to inhibit tumor growth by 75%; s.c. implanted tumor in mice, tail vein injection, 5/w×2 or 2/w×2, measured 28 after start. How it is done:
(§3) Antitumor Effect on Human Gastric Cancer (MKN-45), Human Breast Cancer (MX-1) and Human Colon Cancer (LS180)
(§4) A MKN-45, MX-1 or LS180 solid tumor previously subcutaneously implanted in a nude mouse and grown was thinly cut, and its cubes with each side 3 mm were subcutaneously implanted in test mice. After the implantation, starting from the time when the tumor grew into 0.3 cm^3 or more, various dosages of a test compound were injected once a day for 5 consecutive days into the tail veins of the mice. The same injections were then made for further 5 days after 2 days of interval (treatment schedule: 5/w×2) or once every 3-4 days, four times in total (treatment schedule: 2/w×2). 28 after the start of the treatment, the length (L) and the breadth (W) of each of the tumors were measured, and its volume (V) was calculated (V=½×L×W^2).

Assay [3] deals with mouse leukemia cells (P388). The assay can be described thus: Growth inhibition activity on mouse leukemia cells (P388). It counts as cell-based. The settings on record: 24 h with compound, Thiazoyl Blue, absorbance 550 nm, read-out: 50% inhibition concentration (IC50, nM) P-388. How it is done: Growth Inhibition Activity on Mouse Leukemia Cells
10 μl of a medium containing a test compound was added, and culture was continued at 37° C. for further 24 hours under 5% CO2. 10 μl of 0.5% Thiazoyl Blue was added to the cultured medium, and incubation was made at 37° C. for 2 hours under 5% CO2 to carry out enzymatic reaction. 20% sodium dodecyl sulfate (SDS) was added to discontinue the reaction, and incubation was carried out at 37° C. for further 4 hours to dissolve the resulting dye, and absorbance at 550 nm was measured and compared with the control group.

For assay [4], the system named is human lung cancer cells (PC-13). The assay is described as follows: Growth inhibition activity on human lung cancer cells (PC-13). It counts as cell-based. The conditions noted are these: PC-13 cells, 72 h with compound, Sulforhodamine B, absorbance 560 nm; read-out: 50% inhibition concentration (IC50, nM) PC-13. How it is done:
as §1, §2

The subject of a further assay is Human colon cancer LS180. The assay can be described thus: Antitumor effect on human colon cancer (LS180) solid tumor implanted in mice. The conditions noted are these: total dose to inhibit tumor growth by 75%; s.c. implanted tumor in mice, tail vein injection, 5/w×2 or 2/w×2, measured 28 after start. Type of assay: in vivo, mouse. On the procedure: as §3, §4
The subject of assay [5] is Human gastric cancer MKN-45. The assay is described as follows: Antitumor effect on human gastric cancer (MKN-45) solid tumor implanted in mice. It counts as in vivo, mouse. The conditions noted are these: total dose to inhibit tumor growth by 75%; s.c. implanted tumor in mice, tail vein injection, 5/w×2 or 2/w×2, measured 28 after start. How it is done:
as §3, §4

A value given as a limit tells only on which side of the number the result lay.

As for `O=C1c2c(c3c4ccc(O)cc4n([C@@H]4O[C@H](CO)[C@@H](O)[C@H](O)[C@H]4O)c3c3[nH]c4cc(O)ccc4c23)C(=O)N1NCc1csc(CO)c1` [Example 23], the IC50 in assay [1] worked out at 8.9 nM; in assay [2] it was 1.5 nM; in assay [3], 0.48 nM; in assay [4], 2.3 nM. Further, in the assay on Human breast cancer MX-1, the “GID75 (mg/m^2 total) Human breast cancer MX-1” value came out at 19 mg/m^2.

Consider `O=C1c2c(c3c4cccc(O)c4n(C4OC(CO)C(O)C(O)C4O)c3c3[nH]c4c(O)cccc4c23)C(=O)N1NCc1cccc(O)c1` (stereo not drawn) [Control compound 2, reference compound], for which the IC50 in assay [1] was 76 nM; in assay [2], 12 nM; in assay [3], 6.5 nM; in assay [4] it was 48 nM.

In the case of `O=C1c2c(c3c4ccc(O)cc4n(C4OC(CO)C(O)C(O)C4O)c3c3[nH]c4cc(O)ccc4c23)C(=O)N1NCc1cccc(O)c1` (stereo not drawn) [Control compound, reference compound], the “GID75 (mg/m^2 total) Human colic cancer LS180” value in the assay on Human colon cancer LS180 worked out at 1900 mg/m^2. Moreover, the “GID75 (mg/m^2 total) Human gastric cancer MKN-45” value in assay [5] was found to be 370 mg/m^2. Besides, the “GID75 (mg/m^2 total) Human breast cancer MX-1” value in the assay with Human breast cancer MX-1 is 97 mg/m^2.

For `O=C1c2c(c3c4ccc(O)cc4n([C@@H]4O[C@H](CO)[C@@H](O)[C@H](O)[C@H]4O)c3c3[nH]c4cc(O)ccc4c23)C(=O)N1NCc1sccc1CO` [Example 19], the IC50 amounted to 1.3 nM in assay [1], 0.92 nM in assay [2], 0.19 nM in assay [3] and 0.5 nM in assay [4]. Also, the “GID75 (mg/m^2 total) Human breast cancer MX-1” value in the assay on Human breast cancer MX-1 is listed as <30 mg/m^2.

As to `O=C1c2c(c3c4ccc(O)cc4n([C@@H]4O[C@H](CO)[C@@H](O)[C@H](O)[C@H]4O)c3c3[nH]c4cc(O)ccc4c23)C(=O)N1NCc1sc(CO)cc1CO` [Example 16], the IC50 was 4 nM in assay [1], 1.3 nM in assay [2], 0.4 nM in assay [3] and 0.56 nM in assay [4]. The “GID75 (mg/m^2 total) Human breast cancer MX-1” value in the assay on Human breast cancer MX-1 is <36 mg/m^2.

On to `O=C1c2c(c3c4ccc(O)cc4n([C@@H]4O[C@H](CO)[C@@H](O)[C@H](O)[C@H]4O)c3c3[nH]c4cc(O)ccc4c23)C(=O)N1NCc1ccncc1` [Example 24], for which the IC50 in assay [1] turned out to be 3.3 nM; in assay [2] it was 0.71 nM; in assay [3], 0.48 nM; in assay [4] it was 0.27 nM. Also, in the assay with Human colon cancer LS180, the “GID75 (mg/m^2 total) Human colic cancer LS180” value is 114 mg/m^2. The “GID75 (mg/m^2 total) Human gastric cancer MKN-45” value in assay [5] is listed as 12 mg/m^2. The “GID75 (mg/m^2 total) Human breast cancer MX-1” value in the assay on Human breast cancer MX-1 was 27 mg/m^2.

As for `O=C1c2c(c3c4ccc(O)cc4n([C@@H]4O[C@H](CO)[C@@H](O)[C@H](O)[C@H]4O)c3c3[nH]c4cc(O)ccc4c23)C(=O)N1NCc1ccncc1CO` [Example 3], the IC50 in assay [1] is 0.91 nM; in assay [2] it was 0.35 nM; in assay [3] it was 0.28 nM; in assay [4], 0.22 nM. The “GID75 (mg/m^2 total) Human colic cancer LS180” value in the assay with Human colon cancer LS180 stood at 48 mg/m^2. Further, the “GID75 (mg/m^2 total) Human gastric cancer MKN-45” value in assay [5] is <30 mg/m^2. For the same compound, the “GID75 (mg/m^2 total) Human breast cancer MX-1” value with Human breast cancer MX-1 was <12 mg/m^2.

As to `O=C1c2c(c3c4ccc(O)cc4n([C@@H]4O[C@H](CO)[C@@H](O)[C@H](O)[C@H]4O)c3c3[nH]c4cc(O)ccc4c23)C(=O)N1NCc1cccc(CO)n1` [Example 15], the IC50 in assay [1] came to 4.3 nM; in assay [2], 2.1 nM; in assay [3] it was 0.5 nM; in assay [4] it was 0.62 nM. In addition, the “GID75 (mg/m^2 total) Human colic cancer LS180” value in the assay on Human colon cancer LS180 worked out at 400 mg/m^2. Further, in assay [5], the “GID75 (mg/m^2 total) Human gastric cancer MKN-45” value is on record as <90 mg/m^2. For the same compound, in the assay on Human breast cancer MX-1, the “GID75 (mg/m^2 total) Human breast cancer MX-1” value is on record as <6 mg/m^2.

In the case of `O=C1c2c(c3c4ccc(O)cc4n([C@@H]4O[C@H](CO)[C@@H](O)[C@H](O)[C@H]4O)c3c3[nH]c4cc(O)ccc4c23)C(=O)N1NCc1ccc(CO)o1` [Example 22], the IC50 in assay [1] stood at 1 nM; in assay [2] it was 1.8 nM; in assay [3], 0.63 nM; in assay [4], 0.58 nM.

Turning to `O=C1c2c(c3c4ccc(O)cc4n([C@@H]4O[C@H](CO)[C@@H](O)[C@H](O)[C@H]4O)c3c3[nH]c4cc(O)ccc4c23)C(=O)N1NCc1cscc1CO` [Example 20], the IC50 in assay [1] was 1 nM; in assay [2], 0.92 nM; in assay [3], 0.87 nM; in assay [4], 0.67 nM. Further, the “GID75 (mg/m^2 total) Human breast cancer MX-1” value in the assay with Human breast cancer MX-1 is <30 mg/m^2.

For `O=C1c2c(c3c4ccc(O)cc4n([C@@H]4O[C@H](CO)[C@@H](O)[C@H](O)[C@H]4O)c3c3[nH]c4cc(O)ccc4c23)C(=O)N1NCc1ccsc1CO` [Example 18], the IC50 is 4.6 nM in assay [1], 0.66 nM in assay [2], 0.43 nM in assay [3] and 0.3 nM in assay [4]. The “GID75 (mg/m^2 total) Human breast cancer MX-1” value in the assay on Human breast cancer MX-1 came out at 16 mg/m^2.
